The test system of one series is PLpro of MERS-CoV. To be noted: ref Cho et al., 2013; cited from earlier work.
The subject of another series is PLpro of SARS-CoV. To be noted: ref Cho et al., 2013; cited from earlier work.
Another series relates to SARS-CoV. As to conditions: Vero E6 cells; ref Lin et al., 2018; cited from earlier work.
In another series the test system is Vero E6 cells. As to conditions: cited from earlier work.
The target of the next series is SARS CoV-2 PLpro (Severe acute respiratory syndrome coronavirus 2, UniProt P0DTD1). The series can be described thus: biochemical. To be noted: for IC50: IC50, PLpro 0.3 µM, LKGGAMC substrate 40 µM, Tris-HCl pH 7.3, triplicate. Format: biochemical.

This is an account of results in paper PMC8899470 (Frontiers in Pharmacology, 2022).

Each structure is given as a SMILES string. Values joined by “and” are separate entries in the source; they are usually repeats but may differ in a detail not shown here. Identical values can stand only once. Bounds are passed on as bounds.

Turning to `CCN(CC)C(=S)SSC(=S)N(CC)CC` [Disulfiram], the “Inhibitory effect on PLpro (mode)” value in the series with PLpro of MERS-CoV and in the series on PLpro of SARS-CoV was “competitive inhibitory effect” in each case.
For `Cc1ccc(N)cc1C(=O)N[C@H](C)c1cccc2ccccc12` [GRL0617], the “Inhibition of SARS-CoV replication” value in the series on SARS-CoV is listed as “inhibit the replication process”. Besides, in the series with Vero E6 cells, the Cytotoxicity entry is “no cytotoxicity”.
As to `Cc1ccc(NC2CCNCC2)cc1C(=O)N[C@H](C)c1cccc2[nH]c3ccccc3c12` [hit 1], the half-inhibitory concentration (IC50) (commonly the concentration that inhibits the measured activity by half) at SARS CoV-2 PLpro was 2400 ± 600 nM.
For `CCOC(=O)c1ccc(-c2cccc([C@@H](C)NC(=O)c3cc(NC4CNC4)ccc3C)c2)s1` [hit 2], the IC50 on SARS CoV-2 PLpro was < 1000 nM and 600 nM. The “Inhibitory activity relative to positive control GRL0617” value at SARS CoV-2 PLpro (ratio of IC50 values against PLpro) is listed as “about 4 times”.
`Cc1ccc(NC2COC2)cc1C(=O)N[C@H](C)c1csc2ccccc12` [hit 3]: the IC50 on SARS CoV-2 PLpro worked out at 2100 ± 500 nM.
Regarding `Cc1ccc(NC2CCN(C(F)(F)F)CC2)cc1C(=O)N[C@H](C)c1cccc2ccccc12` [hit 4], the concentration for half-maximal inhibition (IC50) on SARS CoV-2 PLpro is < 1000 nM and 800 nM.
